Data from paper PMC4926326, “Synthesis, Biological Activity, and Apoptotic Properties of NO-Donor/Enmein-Type ent-Kauranoid Hybrids” (International Journal of Molecular Sciences, 2016).
Converted amounts (≈) assume the structure as drawn. Read-outs that look alike come from different tables or passages of the source.

Key:
[1] = system: Bacillus subtilis (CMCC 63501); test: Antibacterial assay, microbroth dilution MIC; assay type: cell-based; conditions: Bacillus subtilis, CMCC63501; 35 °C, 18 h; read-out: MIC B. subtilis
From the text: (§1) The antibacterial activity of NO donor/enmein-type ent-kauranoid hybrids 9a–i against the Gram-negative bacterium Escherichia coli (ATCC 25922), Gram-positive bacterium Staphylococcus aureus (ATCC 29213) and Bacillus subtilis (CMCC 63501), and the fungus Monilia albicans (ATCC 10231) was first disclosed and summarized in Table 1. […] Thus, the introduction of NO-donor substituent groups at the 14-position of enmein-type 6,7-seco-ent-kauranoid could improve antimicrobial activity against S. aureus and B. subtilis.
(§2) The minimal inhibitory concentrations (MICs) were carried out by microbroth dilution method described by the Clinical Laboratory Standards Institute. A stock solution of all the target compounds was prepared with DMSO-medium (1:2), and then graded quantities of the test compounds were diluted with medium. The specified concentration suspension of fungus and bacterium contained approximately 10^3, and 10^5 CFU/mL was added into microtitration plates. The inoculated 96-well plates were incubated at 35 °C for 18 h. MIC was defined as the lowest concentrations that prevented visible growth of the bacteria.

[2] = system: Escherichia coli (ATCC 25922); test: Antibacterial assay, microbroth dilution MIC; assay type: cell-based; conditions: Escherichia coli, ATCC25922; 35 °C, 18 h; read-out: MIC E. coli
From the text: as §1, §2

[3] = system: Staphylococcus aureus (ATCC 29213); test: Antibacterial assay, microbroth dilution MIC; assay type: cell-based; conditions: Staphylococcus aureus, ATCC29213; 35 °C, 18 h; read-out: MIC S. aureus
From the text: as §1, §2

[4] = system: Monilia albicans (ATCC 10231); test: Antifungal assay, microbroth dilution MIC; assay type: cell-based; conditions: Candida albicans, ATCC10231; 35 °C, 18 h; read-out: MIC M. albicans
From the text: as §1, §2

[5] = system: Bel-7402 hepatoma cell line; test: MTT antiproliferative assay; assay type: cell-based, human; conditions: for IC50: Homo sapiens, Bel-7402, MTT, 72 h, mean ± SD of three experiments, read-out: IC50 Bel-7402; for SI (selectivity index): SI = IC50, L-02/IC50, Bel-7402
Procedure: (§3) The antiproliferative activity of 9a–i against four human cancer cell lines K562 leukemia cell line, MGC-803 gastric cancer cell line, CaEs-17 esophageal cancer cell line, and Bel-7402 hepatoma cell line, and human normal liver cells L-02 was evaluated by MTT assay (Table 2).
(§4) MTT assay was developed to monitor mammalian cell survival and proliferation in vitro [32]. CaEs-17 cells (K562, Bel-7402 and MGC-803 cells) from American Type Culture Collection (ATCC, Manassas, VA, USA) were cultivated in RPMI-1640 medium supplemented with 5% fetal bovine serum (v/v), 100 U/mL penicillin, and […] streptomycin. Cells (5 × 10^4 cell/mL) at the log phase of their growth cycle were added to each well of a 96-well plate (100 µL/well) and incubated for 24 h at 37 °C in a humidified atmosphere of 5% CO2. Then, cells were treated with or without test compounds in different concentrations. After 72 h, 5 mg/mL MTT solution (20 µL per well) was added. Cells were incubated at 37 °C. After 4 h, MTT solution was removed and DMSO was added to each well (150 µL). Ten minutes later at room temperature, the optical density (OD) values were measured at the wavelength of 490 nm on a Microplate Reader NO. 550 (BIO-RAD Instruments Inc., Hercules, CA, USA). In this experiment, 10 µg/mL of Taxol was used as the positive control and 0.1% DMSO was used as the negative reference.

K562 leukemia cell line = test: MTT antiproliferative assay; assay type: cell-based, human; conditions: MTT, 72 h, mean ± SD of three experiments, read-out: IC50 K562
Procedure: as §3, §4

[6] = system: MGC-803 gastric cancer cell line; test: MTT antiproliferative assay; assay type: cell-based, human; conditions: MTT, 72 h, mean ± SD of three experiments, read-out: IC50 MGC-803
Procedure: as §3, §4

[7] = system: CaEs-17 esophageal cancer cell line; test: MTT antiproliferative assay; assay type: cell-based; conditions: Homo sapiens, CaEs17; MTT, 72 h, mean ± SD of three experiments; read-out: IC50 CaEs-17
Procedure: as §3, §4

[8] = system: human normal liver cells L-02; test: MTT assay on normal cells; assay type: cell-based; conditions: MTT, 72 h, normal liver cells, mean ± SD of three experiments, read-out: IC50 L-02
Procedure: as §3, §4

Bel-7402 cells [9] = test: Cell cycle distribution by PI staining and flow cytometry; assay type: cell-based, human; conditions: 48 h, control 25.51%
From the text: Cell cycle arrest is an important sign for inhibition of proliferation and the series of events that take place in a cell leading to its division and replication. […] As the inhibitory effect of 9f on cell proliferation was observed, we next assessed the effect on the cell cycle distribution of Bel-7402 cells by flow cytometry (Figure 2). […] Compound 9f could influence Bel-7402 cell cycle progression at low micromolar concentrations in a dose-dependent manner.
Bel-7402 cells (5.0 × 10^3 cells/well) were plated in 6-well plates and incubated for 24 h, and then incubated with different concentrations (0.25, 0.5 and 1 μM) of 9f at 37 °C for 48 h. After 48 h treatment, cells were treated with 70% ethanol and RNase, sequentially, and stained with PI [34]. Cellular DNA content was measured by a flow cytometer for cell cycle distribution analysis.

Bel-7402 cells [10] = test: Apoptosis by Annexin-V and PI double staining, flow cytometry; assay type: cell-based, human; conditions: 72 h; for total percentage of apoptotic cells (early and late, Q2 + Q4): vehicle 7.88%
Procedure: To examine the potent cancer cell antiproliferative effect of 9f on Bel-7402 cells, the number of apoptotic cells was monitored using flow cytometry. The total percentage of apoptotic cells (early and late, Q2 + Q4) was 7.88% treated with a vehicle alone.
Bel-7402 cells were incubated with different concentrations (0.25, 0.5 and 1 μM) of 9f for 72 h. Then, Annexin-V and PI double staining was used to detect apoptotic cells to analyze apoptosis according to the manufacturer’s instructions by flow cytometry.

Bel-7402 cells [11] = test: Mitochondrial membrane potential, JC-1 staining, flow cytometry; assay type: cell-based, human; conditions: 48 h, 0 μM 4.62%
Procedure: In the field of cancer, cellular apoptosis plays a very important role. The loss of mitochondrial membrane potential is a key event during drug-induced apoptosis. In order to investigate the mitochondria related effect of 9f, the fluorescent probe JC-1 (Keygen, KGA601, Nanjing, China) was used to detect the changes on mitochondrial membrane potential. Before Bel-7402 cells were stained with JC-1, cells were incubated with 0, 0.15, 0.3, and 0.6 μM of 9f. Then, the flow cytometry analysis was carried out to determine the cell numbers with collapsed mitochondria in different cell groups (Figure 4).
Bel-7402 cells were cultured in six-well plates after treatment with 9f or vehicles for 48 h. The cells were cells were collected by trypsinization, washed with PBS (Sigma Chemical Co., Shanghai, China) and stained according to the manufacturer’s instruction (Keygen, KGA601, Nanjing, China) with the lipophilic cationic dye JC-1. The flow cytometry analysis was carried out to monitor the percentage of cells with healthy or collapsed mitochondrial membrane potentials.

| MIC [1] [µg/mL] | MIC [2] [µg/mL] | MIC [3] [µg/mL] | MIC [4] [µg/mL] | IC50 [5] [nM] | IC50 (K562 leukemia cell line; Homo sapiens, K562, 72 h) [nM] | IC50 ([6]; Homo sapiens, MGC-803, 72 h) [nM] | IC50 [7] [nM] | melting point [°C] | SMILES | SI (selectivity index) [5] | IC50 [8] [nM] | also measured |
| --- | --- | --- | --- | --- | --- | --- | --- | --- | --- | --- | --- | --- |
| 2 (≈ 2.48 µM) | > 100 | 16 (≈ 19.8 µM) | > 100 | 780 ± 40 | 1250 | 1860 | 3820 ± 190 | 126 to 128 | C=C1C(=O)[C@@]23C(=O)O[C@H]4CCC(C)(C)[C@H]5[C@H](O)OC[C@@]45[C@@H]2CC[C@@H]1[C@H]3OC(=O)c1ccccc1C(=O)OCCCCOc1no[n+]([O-])c1S(=O)(=O)c1ccccc1 [Compound 9i] | 18.6 | 14600 ± 860 | IC50 (K562 leukemia cell line): 1860 ± 180 nM; IC50 [6]: 1250 ± 100 nM |
| 2 (≈ 2.69 µM) | > 100 | 4 (≈ 5.37 µM) | > 100 | 1200 ± 80 | 2310 ± 210 | 1620 ± 80 | 4830 ± 300 | 88 to 89 | C=C1C(=O)[C@@]23C(=O)O[C@H]4CCC(C)(C)[C@H]5[C@H](O)OC[C@@]45[C@@H]2CC[C@@H]1[C@H]3OC(=O)CCCC(=O)OCCOc1no[n+]([O-])c1S(=O)(=O)c1ccccc1 [Compound 9b] | 13.9 | 16700 ± 170 |  |

The next lines start with the molecule.

| SMILES | MIC [1] [µg/mL] | MIC [2] [µg/mL] | MIC [3] [µg/mL] | MIC [4] [µg/mL] | IC50 [5] [nM] | IC50 (K562 leukemia cell line; Homo sapiens, K562, 72 h) [nM] | IC50 ([6]; Homo sapiens, MGC-803, 72 h) [nM] | IC50 [7] [nM] | melting point [°C] | SI (selectivity index) [5] | IC50 [8] [nM] | also measured |
| --- | --- | --- | --- | --- | --- | --- | --- | --- | --- | --- | --- | --- |
| C=C1C(=O)[C@@]23C(=O)O[C@H]4CCC(C)(C)[C@H]5[C@H](O)OC[C@@]45[C@@H]2CC[C@@H]1[C@H]3OC(=O)c1ccccc1C(=O)OCCCOc1no[n+]([O-])c1S(=O)(=O)c1ccccc1 [Compound 9f] | 64 (≈ 80.7 µM) | > 100 | 32 (≈ 40.4 µM) | > 100 | 720 ± 40 | 1680 ± 120 | 1110 ± 50 | 3600 ± 120 | 128 to 130 | 26.1 | 18800 ± 1250 | cells in S phase (Bel-7402 cells [9]; 0.25 μM): 31.78%; cells in S phase (Bel-7402 cells [9]; 0.5 μM): 45.33%; cells in S phase (Bel-7402 cells [9]; 1 μM): 49.78%; apoptotic cells, fold of control group (Bel-7402 cells [10]; 0.25 μM): 2.76 fold; total percentage of apoptotic cells (early and late, Q2 + Q4) (Bel-7402 cells [10]; 0.25 μM): 21.74%; apoptotic cells, fold of control group (Bel-7402 cells [10]; 0.5 μM): 4.54 fold; total percentage of apoptotic cells (early and late, Q2 + Q4) (Bel-7402 cells [10]; 0.5 μM): 35.78%; apoptotic cells, fold of control group (Bel-7402 cells [10]; 1 μM): 8.01 fold; total percentage of apoptotic cells (early and late, Q2 + Q4) (Bel-7402 cells [10]; 1 μM): 63.15%; percentage of apoptotic cells (collapsed mitochondria, JC-1) (Bel-7402 cells [11]; 0.15 μM): 8.81%; percentage of apoptotic cells (collapsed mitochondria, JC-1) (Bel-7402 cells [11]; 0.3 μM): 21.82%; percentage of apoptotic cells (collapsed mitochondria, JC-1) (Bel-7402 cells [11]; 0.6 μM): 25.98% |
| C=C1C(=O)[C@@]23C(=O)O[C@H]4CCC(C)(C)[C@H]5[C@H](O)OC[C@@]45[C@@H]2CC[C@@H]1[C@H]3OC(=O)CCC(=O)OCCCOc1no[n+]([O-])c1S(=O)(=O)c1ccccc1 [Compound 9d] | 2 (≈ 2.69 µM) | > 100 | 4 (≈ 5.37 µM) | > 100 | 1230 ± 80 | 2150 ± 120 | 1500 ± 100 | 4980 ± 420 | 110 to 112 | 11.0 | 13600 ± 1310 |  |
| C=C1C(=O)[C@@]23C(=O)O[C@H]4CCC(C)(C)[C@H]5[C@H](O)OC[C@@]45[C@@H]2CC[C@@H]1[C@H]3OC(=O)CCC(=O)OCCCCOc1no[n+]([O-])c1S(=O)(=O)c1ccccc1 [Compound 9g] | 16 (≈ 21.1 µM) | > 100 | 16 (≈ 21.1 µM) | > 100 | 1270 ± 110 | 2260 ± 80 | 1430 ± 80 | 5130 ± 220 | 85 to 87 | 9.1 | 11600 ± 390 |  |
